“Also recorded” adds a separate entry of the source. Each block holds one compound with its values, some of them ahead of it.
Legend:
[1] = system: HPMECs (human primary pulmonary microvascular endothelial cells); settings: cited from earlier work
[2] = system: total lung sialidase (NEU) activity; assay: Total sialidase (NEU) activity for 4-MU-NANA in mouse lung after in vivo dosing; design: lung sialidase activity: dose or concentration left out as unconfirmed; settings: for total lung sialidase activity: 15 mg/kg ip, harvested 18 h later
Description: Wild-type female C57BL/6 mice aged 10-12 weeks and weighing 18-20 g (The Jackson Laboratory, Bar Harbor, Me.) were treated in accordance with a research protocol approved by the University of Maryland Institutional Animal Care and Use Committee. Animals were maintained in sterile microisolator cages with sterile rodent feed and water in the Baltimore VA Medical Center Research Animal Facility approved by the Association for Assessment and Accreditation of Laboratory Animal Care. To model pulmonary inflammation and fibrosis, a single dose of 0.075 U of bleomycin (BLM)(Sigma-Aldrich, St. Louis, Mo.) diluted in 50 μl of sterile phosphate-buffered saline (PBS) was intratracheally (i.t.) delivered to mouse lungs on day 0. Briefly, a minor anterior midline neck incision was made to reveal the trachea, and a MicroSprayer® (Penn-Century, Wyndmoor, Philadelphia, Pa.) was inserted i.t., and the bleomycin or sterile PBS alone instilled. […] On day 14, mice were euthanized by CO2 asphyxiation followed by cervical dislocation. Immediately postmortem, bronchoalveolar lavage fluid (BALF)s and lungs were harvested. BALF samples were collected and analyzed. Installation and withdrawal of 1 ml of PBS twice via an 18-gauge blunt-end needle secured in the trachea were performed in each animal The 2 aliquots of BALF were pooled, centrifuged, and total and differential cell counts performed. The lungs were processed for qRT-PCR, to measure levels for NEU 1-4, PPCA, collagen 1α2, and collagen 3α1transcripts, quantitative immunoblotting for NEU1-4 and PPCA proteins, and determination of hydroxyproline as a measure of total collagen. In selected experiments, lung tissue was processed for assays of total sialidase activity for fluorogenic substrate, 2′-(4-methylumbelliferyl)-α-D-N-acetylneuraminic acid (4-MU-NANA) and peanut agglutinin (PNA) lectin blotting as an indicator of desialylation.
Fluorometric Assay for Sialidase Activity: Lungs harvested from mice pretreated with one of three sialidase inhibitors or saline alone were weighed, homogenized, centrifuged, and the supernatants collected. These samples and SAECs, HPMECs, and NHLFs preincubated with increasing concentrations of the NEU1-selective NEU inhibitor, III-32B5 were suspended in 200μλ of 500 mM sodium acetate, pH 4.4 containing 0.1% Triton X-100, and a protease inhibitor mixture (Roche Applied Science), and then incubated for 1 h at 37° C. with 25 μl of 2.0 mM 2′-(4-methylumbelliferyl)-α-D-N-acetylneuraminic acid (4-MU-NANA), mixing the tubes every 15 min. The NEU reaction was terminated by addition of 133 mM glycine, pH 10.3, 60 mM NaCl, and 0,083 M […] after which the fluorescence intensity was measured with a Bio-Rad fluorometer (excitation at 355 nm; emission at 460 nm). […]

[3] = system: HLFs (human lung fibroblasts); settings: cited from earlier work
[4] = system: SAECs (human primary small airway epithelial cells); settings: cited from earlier work
[5] = system: BALF cell sialidase activity; assay: Total BALF cell sialidase activity after in vivo dosing; design: species or system mouse; settings: 15 mg/kg ip, re-injected after 24 h, harvested 18 h later; vs saline
Description: Fluorometric Assay for Sialidase Activity: Lungs harvested from mice pretreated with one of three sialidase inhibitors or saline alone were weighed, homogenized, centrifuged, and the supernatants collected. These samples and SAECs, HPMECs, and NHLFs preincubated with increasing concentrations of the NEU1-selective NEU inhibitor, III-32B5 were suspended in 200μλ of 500 mM sodium acetate, pH 4.4 containing 0.1% Triton X-100, and a protease inhibitor mixture (Roche Applied Science), and then incubated for 1 h at 37° C. with 25 μl of 2.0 mM 2′-(4-methylumbelliferyl)-α-D-N-acetylneuraminic acid (4-MU-NANA), mixing the tubes every 15 min. The NEU reaction was terminated by addition of 133 mM glycine, pH 10.3, 60 mM NaCl, and 0,083 M […] after which the fluorescence intensity was measured with a Bio-Rad fluorometer (excitation at 355 nm; emission at 460 nm).
After 24 h, the mice were administered these same injections, and 18 h later, were euthanized and their BALFs and lungs harvested. The lungs were processed for total protein levels and total sialidase activity. […] The BALFs from these same mice were processed for cell counts and sialidase activity. […] These findings establish the ability of each of 2 NEU1-selective pharmacologic inhibitors to profoundly reduce total lung and BALF cell sialidase activity in vivo. The NEU1 inhibitor can comprise C1-methyl esters of the compounds.

[6] = system: bleomycin-challenged C57BL/6 mice; assay: Bleomycin-induced pulmonary fibrosis model; type: in vivo, mouse; settings: for BALF total cell counts, lymphocytes, and neutrophils / lung collagen mRNA (collagen 1A2, collagen 3A1; qRT-PCR) / lung collagen protein (hydroxyproline-based QuickZyme assay): 15 mg/kg i.p. daily days 8-14, day 14, vs bleomycin alone; for total body weight: 15 mg/kg i.p. daily on days 8-14 after bleomycin, by day 14
Description: Wild-type female C57BL/6 mice aged 10-12 weeks and weighing 18-20 g (The Jackson Laboratory, Bar Harbor, Me.) were treated in accordance with a research protocol approved by the University of Maryland Institutional Animal Care and Use Committee. Animals were maintained in sterile microisolator cages with sterile rodent feed and water in the Baltimore VA Medical Center Research Animal Facility approved by the Association for Assessment and Accreditation of Laboratory Animal Care. To model pulmonary inflammation and fibrosis, a single dose of 0.075 U of bleomycin (BLM)(Sigma-Aldrich, St. Louis, Mo.) diluted in 50 μl of sterile phosphate-buffered saline (PBS) was intratracheally (i.t.) delivered to mouse lungs on day 0. Briefly, a minor anterior midline neck incision was made to reveal the trachea, and a MicroSprayer® (Penn-Century, Wyndmoor, Philadelphia, Pa.) was inserted i.t., and the bleomycin or sterile PBS alone instilled. Mice were serially weighed, and on days 8-14, daily administered intraperitoneally (i. p.) with 15 mg/kg of 2DN, or […], or III-32B5, or vehicle alone. On day 14, mice were euthanized by CO2 asphyxiation followed by cervical dislocation. Immediately postmortem, bronchoalveolar lavage fluid (BALF)s and lungs were harvested. BALF samples were collected and analyzed. Installation and withdrawal of 1 ml of PBS twice via an 18-gauge blunt-end needle secured in the trachea were performed in each animal The 2 aliquots of BALF were pooled, centrifuged, and total and differential cell counts performed. […] Total cellular RNA was extracted from murine lung tissue. RNA purity was established with the A260/A280 absorption ratio (>1.90). Total RNA (1.0 μg) was treated with DNase I (Invitrogen) for 15 min and reverse transcribed using avian myeloblastosis virus reverse transcriptase and poly(T) primer (Promega). The resulting cDNA was quantified by real time quantitative reverse transcription-polymerase chain reaction (qRT-PCR) using SYBR Green PCR Master Mix and ABI Prism 7900HT cycler. […] Measurement of Total Lung Collagen: Collagen content was measured in lung tissue based on detection of hydroxyproline, using the Total Collagen Assay kit from QuickZyme (Leiden, The Netherlands). Briefly, following hydrolysis of 50 mg lung tissue in […] of 6M HCl for 20 h at 95° C., the hydrolysate was diluted 10-fold with 4M HCl and measured against serial dilutions of collagen standard; the results were expressed as μg collagen per mg wet lung tissue. Mice challenged I.T. with bleomycin were serially weighed, and on days 8-14, daily administered i.p. 2DN or vehicle alone. On day 14, mice were sacrificed, and BALF and lungs harvested. The BALF was processed for total and differential cell counts, and lung tissues were collagenase-digested for lymphocyte counts and flow cytometry, processed for qRT-PCR for collagen mRNA expression, or homogenized for hydroxyproline-based assays to quantify collagen protein (FIG. 1C, 1D, 1E). In all bleomycin-challenged mice, total body weight decreased through days 1-7 (FIG. 1B). While the saline-injected, bleomycin-challenged mice continued to lose body weight through the 14-day study period, on days ≥9, the 2DN-treated, bleomycin-administered mice maintained and even increased body weight. […] On day 14, total and differential BALF cell counts were performed (FIG. 1C). In the PBS-injected, bleomycin-challenged mice, total cell counts, macrophages, lymphocytes, and neutrophils each were increased compared to BALF cell counts for the simultaneous saline controls. The addition of broad-spectrum NEU inhibition with 2DN reversed the increased in total cell counts, lymphocytes, and neutrophils, each compared to counts in the PBS-injected, bleomycin-challenged mice. In these same mice, lung homogenates were processed for qRT-PCR using primers for collagen 1A2 and collagen 3A1 to quantify their mRNA expression (FIG. 1D). […]

NEUs 2-4 = settings: cited from earlier work
[7] = system: bleomycin-challenged C57BL/6 mice; assay: Bleomycin-induced pulmonary fibrosis model; type: in vivo, mouse; settings: 15 mg/kg; FIG. 6A
[8] = system: HPMECs (human primary pulmonary microvascular endothelial cells); assay: Fluorometric sialidase activity assay (4-MU-NANA) in HPMECs; type: cell-based; settings: increasing concentrations; 1.0×10^6 cells/reaction
Description: (§1) Human Lung Cell Cultures: Human primary small airway epithelial cell (SAEC)s isolated from the distal portion of the bronchioles and human primary pulmonary microvascular endothelial cell (HPMEC)s were purchased from Promocell (Heidelberg, Germany) SAECs were cultured in predefined small airway growth medium containing hydrocortisone, human epidermal growth factor, epinephrine, transferrin, insulin, retinoic acid, triiodothyronine, and fatty acid-free bovine serum albumin. Only SAEC passaged 2-4 were studied. HPMECs were cultured in endothelial cell growth medium (MV-2, PromoCell) containing growth medium supplement mix (PromoCell). Only HPMEC passages 4-7 were studied. Primary normal human lung fibroblast (NHLF)s were either isolated from normal lungs initially harvested from lung […] but ultimately not used in a study approved by the Institutional Review Board at the University of Maryland, or purchased from Lonza (Walkersville, Md.). […]
(§2) Fluorometric Assay for Sialidase Activity: Lungs harvested from mice pretreated with one of three sialidase inhibitors or saline alone were weighed, homogenized, centrifuged, and the supernatants collected. […] The NEU reaction was terminated by addition of 133 mM glycine, pH 10.3, 60 mM NaCl, and 0,083 M […] after which the fluorescence intensity was measured with a Bio-Rad fluorometer (excitation at 355 nm; emission at 460 nm). […]

[9] = system: HLFs (human lung fibroblasts); assay: Fluorometric sialidase activity assay (4-MU-NANA) in HLFs; type: cell-based; settings: increasing concentrations; 1.0×10^6 cells/reaction
Description: as §1, §2

[10] = system: SAECs (human primary small airway epithelial cells); assay: Fluorometric sialidase activity assay (4-MU-NANA) in SAECs; type: cell-based; settings: increasing concentrations; 1.0×10^6 cells/reaction
Description: as §1, §2

[11] = re-injected after 24 h, vs saline

Structure (SMILES): CCCCC(=O)NC[C@H](O)[C@H](O)[C@@H]1OC(C(=O)O)=C[C@H](O)[C@H]1NC(C)=O [C9-BADANA]
sialidase activity in human lung microvascular endothelia, previously reported [1]: inhibition | lung sialidase activity [2]: dramatically reduces | total lung sialidase activity [2, 11]: reduced | sialidase activity in human lung fibroblasts, previously reported [3]: inhibition | sialidase activity in human airway epithelia, previously reported [4]: inhibition | total BALF cell sialidase activity [5]: reduced | BALF total cell counts, lymphocytes, and neutrophils [6]: reversed | lung collagen mRNA (collagen 1A2, collagen 3A1; qRT-PCR) [6]: protected against | lung collagen protein (hydroxyproline-based QuickZyme assay) [6]: protected against; also recorded: significantly decreased | total body weight [6]: returning to their pretreatment baselines; also recorded: counteracted | 14-day collagen deposition, mean value ([6]; mice receiving both BLM and C9-BADANA, BLM alone 13.4±2.1 μg/mg): 8.6 ± 1.7 µg/mg | IC50 (NEUs 2-4): > 1 mM | lung collagen deposition [7]: dramatically reduces

sialidase activity in HLFs [9]: dose-dependently inhibited
Structure (SMILES): CCCCCC(=O)N[C@H]1[C@H]([C@@H](O)[C@@H](O)CNC(C)=O)OC(C(=O)O)=C[C@@H]1O [III-32B5, C5-hexanamido-C9-acetamido-DANA]
sialidase activity in HPMECs [8]: dose-dependently inhibited | total lung sialidase activity [2, 11]: reduced | total BALF cell sialidase activity [5]: reduced | BALF total cell counts, lymphocytes, and neutrophils [6]: reversed | lung collagen mRNA (collagen 1A2, collagen 3A1; qRT-PCR) [6]: protected against | lung collagen protein (hydroxyproline-based QuickZyme assay) [6]: protected against; also recorded: significantly decreased | total body weight [6]: returning to their pretreatment baselines; also recorded: counteracted | sialidase activity in SAECs [10]: dose-dependently inhibited

Structure (SMILES): CC(=O)N[C@H]1[C@H]([C@H](O)[C@H](O)CO)OC(C(=O)O)C[C@@H]1O (stereo partly drawn) [2DN, 2-deoxy-N-acetyneuraminic acid, reference compound]
sialidase activity in human lung microvascular endothelia, previously reported [1]: inhibition | reduction of total NEU activity in lung ([2]; 15 mg/kg i.p., re-injected after 24 h, lungs harvested 18 h later, vs saline): at least 8 fold | sialidase activity in human lung fibroblasts, previously reported [3]: inhibition | sialidase activity in human airway epithelia, previously reported [4]: inhibition | BALF total cell counts, lymphocytes, and neutrophils [6]: reversed | lung collagen mRNA (collagen 1A2, collagen 3A1; qRT-PCR) [6]: reduced | lung collagen protein (hydroxyproline-based QuickZyme assay) [6]: reversed | total body weight [6]: returned to their pretreatment baseline
